Earlier results as cited in patent publication US20070027073A1, “Long-acting derivatives of pyy agonists” (priority 2003, published 2007).

Conditions: in vivo

## CCCCCCCCCCC[C@@H](C[C@@H]1OC(=O)[C@H]1CCCCCC)OC(=O)[C@H](CC(C)C)NC=O [Orlistat]
  reduction of fat adsorption through the gut: about one third
